Test results reported in publication PMC11648822, “Lactam Truncation Yields a Dihydroquinazolinone Scaffold with Potent Antimalarial Activity that Targets PfATP4” (Chemmedchem, 2024).
In brackets after ≈: the same amount, converted by molar mass. Like-named read-outs stand apart in the source and are kept apart here.

Experiments:
[1] = tested on: P. falciparum Dd2 strain with 2.8-fold amplification in PfATP4; test: 'compound 49' resistant parasite viability assay (LDH), Dd2 2.8 CNV; type: cell-based; settings: Plasmodium falciparum, DD2, 72 h, read-out: Dd2^2.8 CNV EC50 (SD)
Description: (§1) These assays were performed according to a previously described protocol.[16] Briefly, P. falciparum Dd2 strains treated with compound were incubated for 72 h at 37 °C. After incubating for 72 h, plates were frozen at −80 °C and then thawed at room temperature for at least 2 h. LDH activity, a surrogate for parasite growth was measured by the addition of the Malstst reagent mix, followed by incubation for 30 min and absorbance read using a ClarioStar Microplate reader at 650 nm. Values were normalized to DMSO control as a percentage and EC50 and dose response curves generated using GraphPad Prism.

[2] = tested on: P. falciparum Dd2 PfATP4^G358S strain; test: PfATP4 drug resistant parasite viability assay (LDH), Dd2 G358S; type: cell-based; settings: for EC50: Plasmodium falciparum, DD2, 72 h, read-out: Dd2^G358S EC50 (SD)
Description: as §1

P. falciparum 7G8 = test: Multidrug-resistant parasite viability assay (SYBR green), 7G8; type: cell-based; settings: Plasmodium falciparum, 7G8, 72 h, read-out: multidrug resistant P. falciparum strains EC50 (SD) 7G8
Description: (§2) These assays were performed as previously described.[16] P. falciparum 3D7 parasites and resistant lines Dd2, W2mef, 7G8, and artemisinin‐resistant Cambodian isolate (Cam3.I (2539T)), and P. knowlesi YH1, were cultured in human O^+ erythrocytes (RBCs) (Australian Red Cross Blood Service), in RPMI‐HEPES culture medium (pH 7.4, 50 μg/mL hypoxanthine, 25 mM NaHCO3, 20 μg/mL gentamicin, 0.5 % Albumax II (GibcoBRL)) (Thermo Fisher Scientific) and maintained in an atmosphere of 1 % O2, 4 % CO2 and 95 % N2. Parasites were synchronised with 5 % (w/v) sorbitol (Sigma‐Aldrich) treatments for ring stages. Growth assays for measuring drug inhibition of in‐cycle, ring to schizont stage parasites have been described previously. Parasites were grown in 1 % haematocrit, at 1 % and 2 % parasitaemia for P. falciparum and P. knowlesi respectively. […] Parasitaemia was measured using a SYBR DNA staining assay on a fluorometer.[33] After the incubation period, supernatants were removed and well contents were resuspended in PBS.

P. falciparum Dd2 = test: P. falciparum viability assay (SYBR green), Dd2; type: cell-based; settings: Plasmodium falciparum, DD2, 72 h, read-out: P. falciparum parental EC50 (SD) Dd2
Description: as §2

P. falciparum W2^mef = test: Multidrug-resistant parasite viability assay (SYBR green), W2mef; type: cell-based; settings: Plasmodium falciparum, W2, 72 h, read-out: multidrug resistant P. falciparum strains EC50 (SD) W2^mef
Description: as §2

[3] = tested on: P. falciparum 3D7 parasites; test: P. falciparum viability assay (SYBR green), 3D7; type: cell-based; settings: Plasmodium falciparum, read-out: P. falciparum parental EC50 (SD) 3D7
Description: These assays were performed as previously described.[16] […] Parasites were synchronised with 5 % (w/v) sorbitol (Sigma‐Aldrich) treatments for ring stages. […] Parasites were grown in 1 % haematocrit, at 1 % and 2 % parasitaemia for P. falciparum and P. knowlesi respectively. […] Parasitaemia was measured using a SYBR DNA staining assay on a fluorometer.[33] After the incubation period, supernatants were removed and well contents were resuspended in PBS.

[4] = Human liver microsome stability; type: in vitro ADME; settings: human liver microsomes; read-out: HLM CLint
Source text: (§3) Human liver microsome stability, rat hepatocyte stability, aqueous solubility and eLogD are platform assays conducted by TCG Lifesciences and undertaken using previously described protocols.[10]

[5] = Aqueous solubility (pH 7.4); type: physicochemical
Source text: as §3

[6] = tested on: P. falciparum Dd2 PfATP4^F156L strain; test: 'compound 49' resistant parasite viability assay (LDH), Dd2 F156L; type: cell-based; settings: Plasmodium falciparum, DD2, 72 h, read-out: Dd2^F156L EC50 (SD)
Description: as §1

[7] = tested on: P. falciparum (Pf) 3D7 parasites; test: P. falciparum LDH viability assay; type: cell-based; settings: Plasmodium falciparum, 3D7, 72 h, LDH activity at 72 h; mean and SD of 3 independent experiments
Source text: This assay is a platform assay conducted at the Walter and Eliza Hall Institute and uses a protocol previously decsribed.[30, 31]

[8] = Human HepG2 cytotoxicity assay (Cell Titre Glo); type: cell-based; settings: HepG2 cells, growth inhibition at 48 h, 4 replicate experiments, read-out: HepG2 CC50 (SD)
Source text: This assay uses Cell TitreGlo as a metabolic maker for human HepG2 cell growth and uses a protocol previously described.[32]

[9] = tested on: P. falciparum Dd2 parental strain; test: PfATP4 drug resistant parasite viability assay (LDH), Dd2 parental; type: cell-based; settings: Plasmodium falciparum, DD2, 72 h, read-out: Dd2^parental EC50 (SD)
Description: as §1

[10] = tested on: P. falciparum NF54 female gametes; test: Dual gamete formation assay, female; type: cell-based; settings: Plasmodium falciparum; NF54 stage V gametocytes, 48 h incubation; αPfs25 antibody 24 h after induction
Description: PfATP4 inhibitors are known to block the transmission of parasites from humans to mosquitoes by interfering with both gametocytes and gamete development.[29] We evaluated a subset of truncated analogues against male and female gametes using a previously described assay. In this assay, stage V gametocytes are treated with compounds and then xanthurenic acid is added and a drop in temperature is used to simulate the mosquito gut environment to induce gametogenesis. After 30 min of compound treatment, male gamete viability is determined by microscopy measuring exflagellation, and after 24 h of compound treatment, female viability is measured using a female gamete specific αPfs25 antibody.
The compounds were evaluated as previously described.[34] Briefly, mature P. falciparum NF54 stage V gametocytes were exposed to compounds for 48 h at 37 °C in 384 well plates in gametocyte culture medium (RPMI 1640 supplemented with 25 mM HEPES, 50 μg mL^−1 hypoxanthine, 4.8 g L^−1 NaHCO3, 2 mM L‐glutamine, 5 % pooled type AB serum, 0.5 % Albumax II (Gibco)) under a 1 % O2/ 3 % CO2/ 96 % N2 environment. Gametogenesis was then triggered by the addition of 10 μL ookinete medium (gametocyte culture medium supplemented with 100 μM xanthurenic acid and 0.27 μg mL^−1 Cy3‐labelled anti‐Pfs25 antibody) to each well at room temperature. Plates were then cooled on a metal block at 4 °C for four min to ensure even cooling and then stabilised for a further 4 min at 28 °C. At 20 min post‐induction, male gametogenesis was recorded in each well by automated brightfield microscopy using a x4 objective lens and 1.5x magnifier (x6 effective magnification). Afterward, plates were incubated in the dark at room temperature for 24 h and then female gametogenesis was recorded in each well by automated fluorescence microscopy (anti‐Pfs25‐positive cells). […] All data was evaluated in comparison to the positive and negative controls to calculate percentage inhibition of male and female gametocytes, and dose response analysis and EC50 calculation were performed using GraphPad Prism.

[11] = aqueous medium at pH 7.4, pH 7.4, aqueous buffer

Row | Structure (SMILES) | EC50 [1] [nM] | EC50 [2] [nM] | EC50 (P. falciparum 7G8) [nM] | EC50 (P. falciparum Dd2) [nM] | EC50 (P. falciparum W2^mef) [nM] | EC50 ([3]; 3D7, SYBR green, 72 h) [nM] | microsomal CLint [4] [µL/min/mg] | solubility ([5]; aqueous medium (pH 7.4; buffer not named), pH 7.4, aqueous buffer) [µM] | solubility ([5]; aqueous medium at pH 7.4 (buffer not named), pH 7.4, aqueous buffer) [µM] | EC50 [6] [nM] | EC50 [7] [nM] | CC50 at 48 h [8] [nM] | EC50 [9] [nM] | EC50 [10] [nM] | fold less potent against PfATP4^G358S strain relative to the Dd2 parental line ([2]; ratio of EC50s) [fold] | EC50 ([3]; 3D7, 72 h) [nM] | solubility [5, 11] [µM]
1 | CN1C(=O)c2ccc(Cl)cc2NC1(C)C(=O)Nc1cncc(Cl)c1 (centres unmarked) [Compound 14, 7‐Chloro‐N‐(5‐chloro‐3‐pyridyl)‐2,3‐dimethyl‐4‐oxo‐1H‐quinazoline‐2‐carboxamide] | 61 | 61 | 43 | 19 | 17 | 16 | 60 | 5.2 (≈ 1.9 µg/mL) | < 5.2 | 89 | 33 | > 40000 | 50 | 120 | – | – | –
2 | CN1C(=O)c2ccc(-n3cccn3)cc2NC1(C)C(=O)Nc1cncc(Cl)c1 (centres unmarked) [Compound 33, N‐(5‐Chloropyridin‐3‐yl)‐2,3‐dimethyl‐4‐oxo‐7‐(1H‐pyrazol‐1‐yl)‐1,2,3,4‐tetrahydroquinazoline‐2‐carboxamide] | 124 | 537 | 101 | 46 | 39 | – | 37 | – | – | 125 | 65 | > 40000 | 73 | 1000 | 7 | 45 | 2.6 (≈ 1.03 µg/mL)
3 | COc1cc(F)c2c(c1)NC(C)(C(=O)Nc1cncc(Cl)c1)N(C)C2=O (centres unmarked) [Compound 36, N‐(5‐Chloropyridin‐3‐yl)‐5‐fluoro‐7‐methoxy‐2,3‐dimethyl‐4‐oxo‐1,2,3,4‐tetrahydroquinazoline‐2‐carboxamide] | 56 | 41 | 31 | 13 | 10 | 10 | 34 | – | – | 47 | 21 | > 40000 | 32 | 210 | – | – | 4 (≈ 1.52 µg/mL)
